How the values were obtained:
Assay type in all cases: in vivo
[1] = test system: maize; assay: Test D pre-emergence, maize seed treated with a herbicide safener; conditions: preemergent; for damage to plant (100=total damage to plant; 0=no damage to plant), ZEAMX: 20 DAA; for ZEAMX damage to plant (100=total damage; 0=no damage): safener-treated seed
Method: A formulation containing 50 g/L of the test chemical was prepared by dissolving the active ingredient in a mixture of organic solvents and emulsifier, details of which are provided in the table. This formulation was then mixed with a small, variable amount of acetone to aid dissolution, before addition of a 0.2% v/v aqueous solution of an adjuvant, as the aqueous diluent, to form an aqueous spray solution which contains a predetermined concentration of the active ingredient.
This aqueous spray solution was then sprayed onto plants including maize and wheat that had been seed treated with a herbicide safener, after one day's cultivation (for pre-emergence) or after about 12 days' cultivation (for post-emergence). The plants were grown from seeds sown in standard soil, placed in a glasshouse under controlled conditions (at 24/18° C. or 20/16° C., day/night; 16 h light; 65% humidity). After spray application the plants were then grown in a glasshouse under the same conditions and watered twice daily. After 15 d for post-emergence and 20 DAA for pre-emergence the test was evaluated (100=total damage to plant; 0=no damage to plant).

[2] = test system: redroot pigweed (Amaranthus retroflexus, AMARE); assay: Test A pre-emergence, redroot pigweed; conditions: after 13 d
Summary of the method: (§1)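 Damage rated visually at 13 d on a 0–100 scale (100 = plant killed). Pre-emergence spray one day after sowing; doses 15.625, 62.5 or 250 g/ha from an acetone/water 50:50 formulation with 0.5% Tween 20. Glasshouse at 24/16° C., 14 h photoperiod, 65% humidity.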

[3] = test system: giant foxtail (Setaria faberi, SETFA); assay: Test A post-emergence, giant foxtail; conditions: after 13 d
Summary of the method: (§2)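 Post-emergence spray at 8 d after sowing; doses 15.625, 62.5 or 250 g/ha in acetone/water 50:50 + 0.5% Tween 20. Glasshouse 24/16 °C, 14 h light, 65% RH, watered twice daily. Visual damage rating 0–100 at 13 d.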

[4] = test system: ivy-leaved morning glory (Ipomoea hederacea, IPOHE); assay: Test A pre-emergence, ivy-leaved morning glory; conditions: after 13 d
Summary of the method: as §1

[5] = test system: barnyardgrass (Echinochloa crus-galli, ECHCG); assay: Test A pre-emergence, barnyardgrass; conditions: after 13 d
Summary of the method: as §1

[6] = test system: corn (Zea mays, ZEAMX); assay: Test A post-emergence, corn; conditions: after 13 d
Summary of the method: as §2

Row | Compound | damage to plant (100=total damage to plant; 0=no damage to plant), ZEAMX ([1]; rate 15) | damage to plant (100=total damage to plant; 0=no damage to plant), ZEAMX ([1]; rate 30) | damage to plant (100=total damage to plant; 0=no damage to plant), ZEAMX ([1]; rate 60) | damage to plant (100=total damage to plant; 0=no damage to plant), ZEAMX ([1]; rate 130) | damage to plant (100=total damage to plant; 0=no damage to plant), ZEAMX ([1]; rate 250) | damage to plant (100=total damage; 0=no damage) AMARE ([2]; Pre-Emergence at 15.625 g/ha) | damage to plant (100=total damage; 0=no damage) AMARE ([2]; Pre-Emergence at 62.5 g/ha) | damage to plant (100=total damage; 0=no damage) AMARE ([2]; Pre-Emergence at 250 g/ha) | damage to plant (100=total damage; 0=no damage) SETFA ([3]; Post-Emergence at 15.625 g/ha) | damage to plant (100=total damage; 0=no damage) SETFA ([3]; Post-Emergence at 62.5 g/ha) | damage to plant (100=total damage; 0=no damage) SETFA ([3]; Post-Emergence at 250 g/ha) | damage to plant (100=total damage; 0=no damage) IPOHE ([4]; Pre-Emergence at 15.625 g/ha) | damage to plant (100=total damage; 0=no damage) IPOHE ([4]; Pre-Emergence at 62.5 g/ha) | damage to plant (100=total damage; 0=no damage) IPOHE ([4]; Pre-Emergence at 250 g/ha) | damage to plant (100=total damage; 0=no damage) ECHCG ([5]; Pre-Emergence at 15.625 g/ha) | damage to plant (100=total damage; 0=no damage) ECHCG ([5]; Pre-Emergence at 62.5 g/ha) | damage to plant (100=total damage; 0=no damage) ECHCG ([5]; Pre-Emergence at 250 g/ha) | damage to plant (100=total damage; 0=no damage) ZEAMX ([6]; Post-Emergence at 15.625 g/ha) | damage to plant (100=total damage; 0=no damage) ZEAMX ([6]; Post-Emergence at 62.5 g/ha) | damage to plant (100=total damage; 0=no damage) ZEAMX ([6]; Post-Emergence at 250 g/ha) | further results
1 | CN1CC(c2cnn(C)c2C(F)(F)F)C(C(=O)Nc2cccc(F)c2F)C1=O (racemic) [Compound 25] | 0 | 0 | 0 | 0 | 0 | 0 | 0 | 0 | 30 | 70 | 80 | 0 | 0 | 0 | 90 | 100 | 100 | 0 | 20 | 30 | damage to plant (100=total damage to plant; 0=no damage to plant), ZEAMX ([1]; rate 500): 0
2 | CN1CC(c2cc(C(F)(F)F)n(C)n2)C(C(=O)Nc2ccccc2F)C1=O (racemic) [Compound 9] | 0 | 0 | 0 | 0 | 0 | 0 | 0 | 20 | 40 | 90 | 90 | 50 | 0 | 0 | 80 | 90 | 90 | 20 | 0 | 50 | damage to plant (100=total damage to plant; 0=no damage to plant), ZEAMX ([1]; rate 500): 0
3 | CCn1nc([C@H]2CN(C)C(=O)[C@@H]2C(=O)Nc2cccc(F)c2F)c2c(F)cccc21 [Compound 7] | 0 | 0 | 0 | 0 | 0 | 0 | 0 | 0 | 60 | 70 | 80 | 20 | 20 | 80 | 70 | 80 | 90 | 20 | 40 | 80 | damage to plant (100=total damage to plant; 0=no damage to plant), ZEAMX ([1]; rate 500): 10
4 | CN1CC(c2cc(Cl)n(C)n2)C(C(=O)Nc2ccc(F)c(F)c2F)C1=O (racemic) [Compound 31] |  |  |  |  |  | 0 | 0 | 0 | 40 | 80 | 80 | 0 | 0 | 10 | 60 | 80 | 80 | 0 | 0 | 0 | ZEAMX damage to plant (100=total damage; 0=no damage) ([1]; Rates 15, 20 DAA): 0; ZEAMX damage to plant (100=total damage; 0=no damage) ([1]; Rates 30, 20 DAA): 0; ZEAMX damage to plant (100=total damage; 0=no damage) ([1]; Rates 60, 20 DAA): 0; ZEAMX damage to plant (100=total damage; 0=no damage) ([1]; Rates 130, 20 DAA): 0; ZEAMX damage to plant (100=total damage; 0=no damage) ([1]; Rates 250, 20 DAA): 0; ZEAMX damage to plant (100=total damage; 0=no damage) ([1]; Rates 500, 20 DAA): 0
5 | CCn1nc([C@H]2CN(C)C(=O)[C@@H]2C(=O)Nc2cccc(F)c2F)c2cc(F)ccc21 [Compound 8] | 0 | 0 | 0 | 0 | 0 | 0 | 0 | 0 | 70 | 70 | 80 | 20 | 20 | 20 | 80 | 90 | 90 | 20 | 60 | 80 | damage to plant (100=total damage to plant; 0=no damage to plant), ZEAMX ([1]; rate 500): 10
6 | CCn1nc([C@H]2CN(C)C(=O)[C@@H]2C(=O)Nc2cccc(F)c2F)c2ccc(F)cc21 [Compound 4] | 0 | 0 | 0 | 0 | 0 | 0 | 20 | 40 | 90 | 90 | 90 | 0 | 10 | 70 | 90 | 90 | 100 | 20 | 50 | 90 | damage to plant (100=total damage to plant; 0=no damage to plant), ZEAMX ([1]; rate 500): 10
